Measured values published in ChEMBL document CHEMBL3390838, “Synthesis, anti-proliferative and proapoptotic activity of novel oleanolic acid azaheterocyclic derivatives” (Medchemcomm, 2012).
The source made the active and inactive calls. No cut-off for these calls is given here.

Key:
[1] = Cytotoxicity against human HL60 cells after 72 hrs by MTT assay; format: functional, cell-based; conditions: HL-60, 72 h
[2] = test system: K562; assay: Cytotoxicity against human K562 cells after 72 hrs by MTT assay; format: functional, cell-based; conditions: K562, 72 h
[3] = Cytotoxicity against human Bel7404 cells after 72 hrs by MTT assay; format: functional, cell-based; conditions: BEL-7404, 72 h
[4] = test system: MDA-MB-231; assay: Cytotoxicity against human MDA-MB-231 cells after 72 hrs by MTT assay; format: functional, cell-based; conditions: MDA-MB-231, 72 h
[5] = test system: BEL-7404 tumor cell line; assay: Induction of apoptosis in human Bel7404 cells assessed as increase in Bax protein expression at 60 uM at 36 hrs by Western blot analysis relative to control; format: functional
[6] = test system: BEL-7404 tumor cell line; assay: Induction of apoptosis in human Bel7404 cells assessed as increase in Bax protein expression at 60 uM at 24 hrs by Western blot analysis relative to control; format: functional
[7] = test system: BEL-7404 tumor cell line; assay: Induction of apoptosis in human Bel7404 cells assessed as increase in Bax protein expression at 60 uM at 12 hrs by Western blot analysis relative to control; format: functional
[8] = Cytotoxicity against human L02 cells at 20 to 160 uM after 72 hrs by MTT assay; format: cell-based; conditions: l02, 72 h
[9] = test system: BEL-7404 tumor cell line; assay: Induction of apoptosis in human Bel7404 cells assessed as nuclear condensation at 60 uM after 48 hrs using Hoechst staining by fluorescence microscopy; format: functional, cell-based
[10] = test system: BEL-7404 tumor cell line; assay: Induction of apoptosis in human Bel7404 cells assessed as membrane blebbing at 60 uM after 48 hrs using Hoechst staining by fluorescence microscopy; format: functional, cell-based
[11] = test system: BEL-7404 tumor cell line; assay: Induction of apoptosis in human Bel7404 cells assessed as nuclear shrinking at 60 uM after 48 hrs using Hoechst staining by fluorescence microscopy; format: functional, cell-based
[12] = test system: BEL-7404 tumor cell line; assay: Induction of apoptosis in human Bel7404 cells assessed as apoptotic bodies at 60 uM after 48 hrs using Hoechst staining by fluorescence microscopy; format: functional, cell-based
[13] = test system: BEL-7404 tumor cell line; assay: Induction of apoptosis in human Bel7404 cells assessed as reduction in Bcl2 protein expression at 60 uM at 12 hrs by Western blot analysis relative to control; format: functional
[14] = test system: BEL-7404 tumor cell line; assay: Induction of apoptosis in human Bel7404 cells assessed as reduction in Bcl2 protein expression at 60 uM at 24 hrs by Western blot analysis relative to control; format: functional
[15] = test system: BEL-7404 tumor cell line; assay: Induction of apoptosis in human Bel7404 cells assessed as reduction in Bcl2 protein expression at 60 uM at 36 hrs by Western blot analysis relative to control; format: functional
[16] = test system: BEL-7404 tumor cell line; assay: Induction of apoptosis in human Bel7404 cells assessed as reduction in Bcl2 protein expression at 60 uM at 48 hrs by Western blot analysis relative to control; format: functional
[17] = test system: BEL-7404 tumor cell line; assay: Induction of apoptosis in human Bel7404 cells assessed as increase in cytochrome c protein level at 60 uM at 12 hrs by Western blot analysis relative to control; format: functional
[18] = test system: BEL-7404 tumor cell line; assay: Induction of apoptosis in human Bel7404 cells assessed as increase in cytochrome c protein level at 60 uM at 24 hrs by Western blot analysis relative to control; format: functional
[19] = test system: BEL-7404 tumor cell line; assay: Induction of apoptosis in human Bel7404 cells assessed as increase in cytochrome c protein level at 60 uM at 36 hrs by Western blot analysis relative to control; format: functional
[20] = test system: BEL-7404 tumor cell line; assay: Induction of apoptosis in human Bel7404 cells assessed as increase in cytochrome c protein level at 60 uM at 48 hrs by Western blot analysis relative to control; format: functional
[21] = test system: BEL-7404 tumor cell line; assay: Induction of apoptosis in human Bel7404 cells assessed as increase in procaspase 9 protein level at 60 uM at 24 hrs by Western blot analysis relative to control; format: functional
[22] = test system: BEL-7404 tumor cell line; assay: Induction of apoptosis in human Bel7404 cells assessed as increase in procaspase 9 protein level at 60 uM at 36 hrs by Western blot analysis relative to control; format: functional
[23] = test system: BEL-7404 tumor cell line; assay: Induction of apoptosis in human Bel7404 cells assessed as increase in procaspase 9 protein level at 60 uM at 48 hrs by Western blot analysis relative to control; format: functional
[24] = test system: BEL-7404 tumor cell line; assay: Induction of apoptosis in human Bel7404 cells assessed as decrease in procaspase 3 protein level at 60 uM at 12 hrs by Western blot analysis relative to control; format: functional
[25] = test system: BEL-7404 tumor cell line; assay: Induction of apoptosis in human Bel7404 cells assessed as decrease in procaspase 3 protein level at 60 uM at 24 hrs by Western blot analysis relative to control; format: functional
[26] = test system: BEL-7404 tumor cell line; assay: Induction of apoptosis in human Bel7404 cells assessed as decrease in procaspase 3 protein level at 60 uM at 36 hrs by Western blot analysis relative to control; format: functional
[27] = test system: BEL-7404 tumor cell line; assay: Induction of apoptosis in human Bel7404 cells assessed as decrease in procaspase 3 protein level at 60 uM at 48 hrs by Western blot analysis relative to control; format: functional
[28] = Cell cycle arrest in human Bel7404 cells assessed as accumulation at G0/G1 phase at 20 uM after 24 hrs by PI-based flow cytometry ( Rvb = 56.50 % ); format: functional; conditions: BEL-7404
[29] = Cell cycle arrest in human Bel7404 cells assessed as accumulation at G0/G1 phase at 40 uM after 24 hrs by PI-based flow cytometry ( Rvb = 56.50 % ); format: functional; conditions: BEL-7404
[30] = Cell cycle arrest in human Bel7404 cells assessed as accumulation at G0/G1 phase at 60 uM after 24 hrs by PI-based flow cytometry ( Rvb = 56.50 % ); format: functional; conditions: BEL-7404
[31] = Cell cycle arrest in human Bel7404 cells assessed as accumulation at S phase at 20 uM after 24 hrs by PI-based flow cytometry ( Rvb = 43.38 % ); format: functional; conditions: BEL-7404
[32] = Cell cycle arrest in human Bel7404 cells assessed as accumulation at S phase at 40 uM after 24 hrs by PI-based flow cytometry ( Rvb = 43.38 % ); format: functional; conditions: BEL-7404
[33] = Cell cycle arrest in human Bel7404 cells assessed as accumulation at S phase at 60 uM after 24 hrs by PI-based flow cytometry ( Rvb = 43.38 % ); format: functional; conditions: BEL-7404
[34] = Cell cycle arrest in human Bel7404 cells assessed as accumulation at G2/M phase at 20 uM after 24 hrs by PI-based flow cytometry ( Rvb = 0.11 % ); format: functional; conditions: BEL-7404
[35] = Cell cycle arrest in human Bel7404 cells assessed as accumulation at G2/M phase at 40 uM after 24 hrs by PI-based flow cytometry ( Rvb = 0.11 % ); format: functional; conditions: BEL-7404
[36] = Cell cycle arrest in human Bel7404 cells assessed as accumulation at G2/M phase at 60 uM after 24 hrs by PI-based flow cytometry ( Rvb = 0.11 % ); format: functional; conditions: BEL-7404
[37] = Cell cycle arrest in human Bel7404 cells assessed as increase in G0/G1 phase after 24 hrs by PI-based flow cytometry; format: functional; conditions: BEL-7404
[38] = Cell cycle arrest in human Bel7404 cells assessed as decrease in G2/M phase after 24 hrs by PI-based flow cytometry; format: functional; conditions: BEL-7404
[39] = test system: BEL-7404 tumor cell line; assay: Induction of apoptosis in human Bel7404 cells assessed as increase in procaspase 9 protein level at 60 uM at 12 hrs by Western blot analysis relative to control; format: functional
[40] = Cell cycle arrest in human Bel7404 cells assessed as decrease in S phase after 24 hrs by PI-based flow cytometry; format: functional; conditions: BEL-7404
[41] = test system: BEL-7404 tumor cell line; assay: Induction of apoptosis in human Bel7404 cells assessed as increase in Bax protein expression at 60 uM at 48 hrs by Western blot analysis relative to control; format: functional

CC1(C)CC[C@]2(C(=O)O)CC[C@]3(C)C(=CC[C@@H]4[C@@]5(C)CC[C@H](O)C(C)(C)[C@@H]5CC[C@]43C)[C@@H]2C1 [OLEANOLIC_ACID]
IC50 [1]: 54.6 µM
IC50 [2]: 58.1 µM
IC50 [3]: 57.9 µM
IC50 [4]: 67.9 µM

CC1(C)CC[C@]2(C(=O)O)CC[C@]3(C)C(=CC[C@@H]4[C@@]5(C)Cc6cnoc6C(C)(C)[C@@H]5CC[C@]43C)[C@@H]2C1
IC50 [1]: 42.1 µM
IC50 [2]: 11.4 µM
IC50 [3]: 36 µM
IC50 [4]: 53.7 µM

CC(=O)n1nc2c(n1)C(C)(C)[C@@H]1CC[C@]3(C)[C@H](CC=C4[C@@H]5CC(C)(C)CC[C@]5(C(=O)O)CC[C@]43C)[C@@]1(C)C2
IC50 [1]: 76.6 µM
IC50 [2]: 67.6 µM
IC50 [3]: 45.1 µM
IC50 [4]: 61.7 µM

CC1(C)CC[C@]2(C(=O)O)CC[C@]3(C)C(=CC[C@@H]4[C@@]5(C)Cc6cnc(N)nc6C(C)(C)[C@@H]5CC[C@]43C)[C@@H]2C1
fold change (FC) [5]: 7.6
fold change (FC) [6]: 1.5
fold change (FC) [7]: 1.5
IC50 [1]: 42.6 µM
IC50 [2]: 39.3 µM
IC50 [3]: 35.1 µM
IC50 [4]: 44.8 µM
Activity [8]: Non-toxic
Activity [9]: Active
Activity [10]: Active
Activity [11]: Active
Activity [12]: Active
fold change (FC) [13]: 1
fold change (FC) [14]: 0.5
fold change (FC) [15]: 0.4
fold change (FC) [16]: 0.4
fold change (FC) [17]: 1.3
fold change (FC) [18]: 2.6
fold change (FC) [19]: 2.7
fold change (FC) [20]: 7
fold change (FC) [21]: 0.6
fold change (FC) [22]: 0.2
fold change (FC) [23]: 0.1
fold change (FC) [24]: 0.8
fold change (FC) [25]: 0.6
fold change (FC) [26]: 0.4
fold change (FC) [27]: 0.1
Activity [28]: 58.4%
Activity [29]: 62.9%
Activity [30]: 73%
Activity [31]: 41.6%
Activity [32]: 37.1%
Activity [33]: 27%
Activity [34]: 0%
Activity [35]: 0%
Activity [36]: 0%
Activity [37]: Dose-dependent effect
Activity [38]: Dose-dependent effect
fold change (FC) [39]: 0.7
Activity [40]: Dose-dependent effect
fold change (FC) [41]: 7.7

CC1(C)CC[C@]2(C(=O)O)CC[C@]3(C)C(=CC[C@@H]4[C@@]5(C)Cc6nonc6C(C)(C)[C@@H]5CC[C@]43C)[C@@H]2C1
IC50 [1]: 46.1 µM
IC50 [2]: 49.7 µM
IC50 [3]: 30.9 µM
IC50 [4]: 53.6 µM
